US20110014178A1 (priority 2002, published 2011)

What was measured:
[1] = target: phospholipase C (alpha toxin produced by Clostridium perfringens) (Clostridium perfringens, UniProt P0C216); settings: cited from earlier work
[2] = tested on: C. perfringens; assay type: in vivo, broiler chicks; settings: 50 g/t in feed, challenged
[3] = tested on: Clostridium perfringens; assay type: cell-based; settings: FIC plates

| Compound | effect on enzymatic activity of phospholipase C [1] | Feed Consum. [2] | Feed Conv. [2] | NE Mort. [2] | Wt. Gain D 5 to D 14 [2] | Wt. Gain D 5 to D 27 [2] | Wt. Gain D 14 to D 27 [2] | Lesion Score (0 to 3) Day 22 ([2]; 0 normal, 3 most severe) | Lesion Score (0 to 3) Day 27 ([2]; 0 normal, 3 most severe) | lysozyme effective alone ([3]; 100 times dilution of overnight culture, no nisin) | lysozyme required to achieve a bactericidal effect ([3]; in combination with nisin 3 ppm) |
| --- | --- | --- | --- | --- | --- | --- | --- | --- | --- | --- | --- |
| O=C(O)CN(CCN(CC(=O)O)CC(=O)O)CC(=O)O [EDTA] | direct inhibitory effect | – | – | – | – | – | – | – | – | – | – |
| bacitracin methylene disalicylate [BMD] | – | 14.000 | 1.659 | 2 | 0.252 kg | 0.946 kg | 0.694 kg | 0.0 | 0.3 | – | – |
| lysozyme | direct inhibitory effect | – | – | – | – | – | – | – | – | approximately 120 ppm | 8 ppm |
